Results as given in ChEMBL document CHEMBL1201862, “PubChem BioAssay data set” (2004).
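Compound exposure: 48 hours, 5 concentrations, 96-well plates. Abbreviation: GI50, concentration required for 50% inhibition of growth.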 Active and inactive are the calls of the source. Rule as the data show it: active = GI50 up to about 1.1 µM and inactive = higher.

Columns and labels:
Test in all cases: NCI tumour cell line growth inhibition, 48 h
A498 = tested on: A498
U-251 = tested on: U-251
HCC 2998 = tested on: HCC 2998
A549 = tested on: A549
Malme-3M = tested on: Malme-3M
HL-60 = tested on: HL-60
NCI-H522 = tested on: NCI-H522
K562 = tested on: K562
COLO 205 = tested on: COLO 205
NCI/ADR-RES = tested on: NCI/ADR-RES
DU-145 = tested on: DU-145
EKVX = tested on: EKVX
UACC-257 = tested on: UACC-257
PC-3 = tested on: PC-3
OVCAR-3 = tested on: OVCAR-3
Hs-578T = tested on: Hs-578T
SK-MEL-2 = tested on: SK-MEL-2
SK-MEL-28 = tested on: SK-MEL-28
TK-10 = tested on: TK-10
RPMI-8226 = tested on: RPMI-8226
SF-539 = tested on: SF-539
SW-620 = tested on: SW-620
KM12 = tested on: KM12
SR = tested on: SR
NCI-H460 = tested on: NCI-H460
IGROV-1 = tested on: IGROV-1
OVCAR-8 = tested on: OVCAR-8
NCI-H226 = tested on: NCI-H226
SK-OV-3 = tested on: SK-OV-3
MOLT-4 = tested on: MOLT-4
UACC-62 = tested on: UACC-62
BT-549 = tested on: BT-549
OVCAR-5 = tested on: OVCAR-5
786-0 = tested on: 786-0
SK-MEL-5 = tested on: SK-MEL-5
M14 = tested on: M14
T47D = tested on: T47D
MDA-N = tested on: MDA-N
MDA-MB-435 = tested on: MDA-MB-435
SN12C = tested on: SN12C
RXF 393 = tested on: RXF 393
NCI-H23 = tested on: NCI-H23
OVCAR-4 = tested on: OVCAR-4
MCF7 = tested on: MCF7
LOX IMVI = tested on: LOX IMVI
SNB-19 = tested on: SNB-19
HT-29 = tested on: HT-29
MDA-MB-231 = tested on: MDA-MB-231
HCT-15 = tested on: HCT-15
UO-31 = tested on: UO-31
HCT-116 = tested on: HCT-116
HOP-92 = tested on: HOP-92
SNB-75 = tested on: SNB-75
SF-268 = tested on: SF-268
CAKI-1 = tested on: CAKI-1
HOP-62 = tested on: HOP-62
ACHN = tested on: ACHN
CCRF-CEM = tested on: CCRF-CEM
SF-295 = tested on: SF-295

For `CSc1c(C#N)c(O)n(-c2ccc(C)cc2)c(=O)c1C#N`, the GI50 (A498) was > 100 µM (inactive), the GI50 (U-251) was > 100 µM (inactive) and the GI50 (HCC 2998) was > 100 µM (inactive). For the same compound, the GI50 (A549) was > 100 µM (inactive), the GI50 (Malme-3M) was > 100 µM (inactive) and the GI50 (HL-60) was > 100 µM (inactive). For the same compound, the GI50 (NCI-H522) was > 100 µM (inactive), the GI50 (K562) was > 100 µM (inactive) and the GI50 (COLO 205) was > 100 µM (inactive). For the same compound, the GI50 (NCI/ADR-RES) was > 100 µM (inactive), the GI50 (DU-145) was > 100 µM (inactive) and the GI50 (EKVX) was > 100 µM (inactive). The GI50 (UACC-257) was > 100 µM (inactive), the GI50 (PC-3) was > 100 µM (inactive) and the GI50 (OVCAR-3) was > 100 µM (inactive). For the same compound, the GI50 (Hs-578T) was > 100 µM (inactive), the GI50 (SK-MEL-2) was > 100 µM (inactive) and the GI50 (SK-MEL-28) was > 100 µM (inactive). For the same compound, the GI50 (TK-10) was > 100 µM (inactive), the GI50 (RPMI-8226) was > 100 µM (inactive) and the GI50 (SF-539) was > 100 µM (inactive). For the same compound, the GI50 (SW-620) was > 100 µM (inactive), the GI50 (KM12) was > 100 µM (inactive) and the GI50 (SR) was > 100 µM (inactive). For the same compound, the GI50 (NCI-H460) was > 100 µM (inactive), the GI50 (IGROV-1) was > 100 µM (inactive) and the GI50 (OVCAR-8) was > 100 µM (inactive). For the same compound, the GI50 (NCI-H226) was > 100 µM (inactive), the GI50 (SK-OV-3) was > 100 µM (inactive) and the GI50 (MOLT-4) was > 100 µM (inactive). The GI50 (UACC-62) was > 100 µM (inactive), the GI50 (BT-549) was > 100 µM (inactive) and the GI50 (OVCAR-5) was > 100 µM (inactive). The GI50 (786-0) was > 100 µM (inactive), the GI50 (SK-MEL-5) was > 100 µM (inactive) and the GI50 (M14) was > 100 µM (inactive). The GI50 (T47D) was > 100 µM (inactive), the GI50 (MDA-N) was > 100 µM (inactive) and the GI50 (MDA-MB-435) was > 100 µM (inactive). The GI50 (SN12C) was > 100 µM (inactive), the GI50 (RXF 393) was > 100 µM (inactive) and the GI50 (NCI-H23) was > 100 µM (inactive). The GI50 (OVCAR-4) was > 100 µM (inactive), the GI50 (MCF7) was > 100 µM (inactive) and the GI50 (LOX IMVI) was > 100 µM (inactive). The GI50 (SNB-19) was > 100 µM (inactive), the GI50 (HT-29) was > 100 µM (inactive) and the GI50 (MDA-MB-231) was > 100 µM (inactive). For the same compound, the GI50 (HCT-15) was > 100 µM, the GI50 (UO-31) was > 100 µM (inactive) and the GI50 (HCT-116) was > 100 µM (inactive). For the same compound, the GI50 (HOP-92) was > 100 µM (inactive), the GI50 (SNB-75) was > 100 µM (inactive) and the GI50 (SF-268) was > 100 µM (inactive). The GI50 (CAKI-1) was > 100 µM (inactive).
In the case of `COC(=O)c1ccc2cc(O)c(O)cc2c1`, the GI50 (A498) is reported as 30.8 µM (inactive), the GI50 (U-251) is reported as 29.6 µM (inactive) and the GI50 (HCC 2998) is reported as > 68.9 µM (inactive). The GI50 (A549) was 36.9 µM (inactive), the GI50 (Malme-3M) was 35.8 µM (inactive) and the GI50 (HL-60) was > 100 µM (inactive). For the same compound, the GI50 (NCI-H522) was 16.1 µM (inactive), the GI50 (K562) was 33.9 µM (inactive) and the GI50 (COLO 205) was 37.9 µM (inactive). For the same compound, the GI50 (NCI/ADR-RES) was 25.6 µM (inactive), the GI50 (DU-145) was 53.2 µM (inactive) and the GI50 (EKVX) was 20.5 µM (inactive). For the same compound, the GI50 (UACC-257) was 29.8 µM (inactive), the GI50 (HOP-62) was 56 µM (inactive) and the GI50 (PC-3) was 32.4 µM (inactive). For the same compound, the GI50 (OVCAR-3) was 31.1 µM (inactive), the GI50 (Hs-578T) was 22.8 µM (inactive) and the GI50 (ACHN) was 32.7 µM (inactive). For the same compound, the GI50 (SK-MEL-2) was 39.5 µM (inactive), the GI50 (SK-MEL-28) was 46.9 µM (inactive) and the GI50 (TK-10) was 27.9 µM (inactive). For the same compound, the GI50 (RPMI-8226) was 29.4 µM (inactive), the GI50 (SF-539) was 40 µM (inactive) and the GI50 (SW-620) was 51.4 µM (inactive). For the same compound, the GI50 (CCRF-CEM) was 18.9 µM (inactive), the GI50 (KM12) was 30.9 µM (inactive) and the GI50 (SR) was 13.2 µM (inactive). For the same compound, the GI50 (IGROV-1) was 26.7 µM (inactive), the GI50 (OVCAR-8) was 33 µM (inactive) and the GI50 (NCI-H226) was 38.9 µM (inactive). The GI50 (SK-OV-3) was 70.8 µM (inactive), the GI50 (MOLT-4) was 15.5 µM (inactive) and the GI50 (UACC-62) was 26.2 µM (inactive). For the same compound, the GI50 (BT-549) was 21.2 µM (inactive), the GI50 (OVCAR-5) was > 88.9 µM (inactive) and the GI50 (786-0) was 41.8 µM (inactive). For the same compound, the GI50 (SK-MEL-5) was 22.1 µM (inactive), the GI50 (M14) was 26.3 µM (inactive) and the GI50 (T47D) was 25.8 µM (inactive). For the same compound, the GI50 (MDA-N) was 45 µM (inactive), the GI50 (MDA-MB-435) was 34.7 µM (inactive) and the GI50 (SN12C) was 55.2 µM (inactive). The GI50 (RXF 393) was 48.2 µM (inactive), the GI50 (NCI-H23) was 26.5 µM (inactive) and the GI50 (OVCAR-4) was 43.6 µM (inactive). For the same compound, the GI50 (SF-295) was 38.3 µM (inactive), the GI50 (MCF7) was 42.9 µM (inactive) and the GI50 (LOX IMVI) was 36.1 µM (inactive). The GI50 (SNB-19) was 22.8 µM (inactive), the GI50 (HT-29) was 37.4 µM (inactive) and the GI50 (MDA-MB-231) was 60.7 µM (inactive). The GI50 (HCT-15) was 33 µM, the GI50 (UO-31) was 17.4 µM (inactive) and the GI50 (HCT-116) was 41 µM (inactive). For the same compound, the GI50 (HOP-92) was 32.5 µM (inactive), the GI50 (SNB-75) was 90.8 µM (inactive) and the GI50 (SF-268) was 16.6 µM (inactive). The GI50 (CAKI-1) was 78.2 µM (inactive).
